Measurements from patent US7358236B1 (priority 2002, dated 2008).
Where two headings read alike, the source gives them in different places.

Columns and labels:
heart tissue = assay: Histopathology of heart tissue after single dose VTA, and protective effect of propranolol; settings: for Heart histopathology with propranolol pretreatment: 2 mg/kg Propranolol Hydrochloride 1 hour prior to CA-4DP 100 mg/kg
[1] = rat, in vivo
tumor blood flow = settings: cited from earlier work

| Compound | MABP (antihypertensive co-administered with CA-4DP 30 mg/kg i.p., 1 hour after CA-4DP dosing) [mmHg] | Heart Rate (antihypertensive co-administered with CA-4DP 30 mg/kg i.p., 1 hour post CA-4DP dosing) [bpm] | Heart histopathology with propranolol pretreatment (heart tissue; 6 or 24 hours post-treatment) | Heart histopathology with propranolol pretreatment (heart tissue; 4 days) | MABP stabilized level [1] [mmHg] | Heart Rate (rat, in vivo) [bpm] | Increase of MABP versus control animals (rat, in vivo, ip, 30 mg/kg) [%] | MABP (rat, in vivo, ip, 30 mg/kg) [mmHg] | Blood flow in vital tissues (heart, kidney, small intestine) (tumor blood flow; 100 mg/kg, rat) | Reduction in tumor blood flow (tumor blood flow; 100 mg/kg, rat) [fold] | Mean Arterial Blood Pressure change (tumor blood flow; almost immediately following administration) | Histopathological changes in the heart (heart tissue; CA-4DP 100 mg/kg i.v. single dose, overall) | Histopathological changes in the heart (heart tissue; CA-4DP 100 mg/kg i.v., at 6 hours) | Histopathological changes in the heart (heart tissue; CA-4DP 100 mg/kg i.v., at 24 hours) | Histopathological changes in the heart (heart tissue; CA-4DP 100 mg/kg i.v., at 4 days) |
| --- | --- | --- | --- | --- | --- | --- | --- | --- | --- | --- | --- | --- | --- | --- | --- |
| CC(C)NCC(O)COc1cccc2ccccc12 (racemic) [propranolol, 1-[ispropylamino]3-[1-napthyloxy]-2-propanol hydrocholoride] | 80.2 | 248.5 | no abnormal CA-4DP-related histopathology | cardiac tissue remained healthy |  |  |  |  |  |  |  |  |  |  |  |
| Combretastatin A-4 Disodium Phosphate Prodrug [CA-4DP] |  |  |  |  | 110 | 265.6 | 72 | 107.9 | maintained at normal levels | 100 | substantial but transient increase | necrosis and degeneration of cardiac cells in some localized areas | some blood vessels in the heart tissue were observed dilated | Inflammation cells infiltrated the heart tissue | loss of striation, fragmentation, a manifestation of necrosis and degeneration |
